Experimental data published in PMC12703749, “H2O2–Responsive Anticancer Prodrug: Synthesis, Precision Deuteration in Search of In Vivo Metabolites, and Activation Pathway” (Journal of Medicinal Chemistry, 2025).

Assay: In vivo determination of metabolites in urine and feces (HRMS)
Parameters: species or system athymic nude mice
Method: To elucidate the in vivo activation mechanism of the H2O2-responsive prodrugs 10a and 10b, we investigated their metabolic fate in a xenograft mouse model. MDA-MB-468 tumor-bearing athymic nude mice received an intraperitoneal injection of a 1:1 mixture of 10a (nondeuterated, d 0) and 10b (deuterated, d 5) at equimolar doses (15 mg/kg each; total dose: 30 mg/kg). […] These end-products are consistent with a pathway initiated by H2O2-triggered oxidative deboronation of the boronic acid moiety in 10a/10b to yield phenol intermediates 11a/11b, which can undergo either hydrolysis to alcohols 12a/12b followed by N-demethylation, or direct N-demethylation to 13a/13b (Scheme ). The resulting 13a/13b serve as substrates for UDP-glucuronosyltransferase (UGT)-catalyzed conjugation with uridine diphosphate glucuronic acid, ultimately forming glucuronide conjugates 14a and 14b (Figure and Scheme ). Although intermediates 11a,b-13a,b were not detected in vivo, likely due to their rapid turnover and concentrations below the sensitivity of our LC–MS method, the proposed sequence is strongly supported by complementary cell-culture metabolism studies in which two key intermediates (11a,b and 12a,b) were observed (Figures S8 and S9). Detection of both isotopically labeled and unlabeled metabolites therefore provides robust evidence for H2O2-mediated oxidative deboronation in vivo, with the in vitro findings offering additional mechanistic confirmation.
Eight-week-old female athymic nude mice (immunodeficient) were anesthetized with isoflurane and subcutaneously inoculated in the flank with 7.5 × 10^6 MDA-MB-468 cells in 100 μL of a 1:1 mixture of Matrigel and Dulbecco’s Modified Eagle Medium (DMEM). Cells were sourced from the American Type Culture Collection (ATCC) and certified free of bloodborne pathogens. Mice were monitored daily for tumor development and weighed weekly. Upon establishment of palpable xenografts (typically one-week postinoculation), animals were randomized into treatment (n = 3) and control (n = 3) groups. For metabolite profiling, mice were individually housed in Labsand-lined cages (Labsand purchased from BrainTree Scientific, inc.). The treatment group received an IP injection of a 1:1 mixture of compounds 10a (d 0) and 10b (d 5) (100 μL) at a combined dose of […], formulated in DMSO/PBS (1×):PEG400 at a ratio of 2:19:19. The control group received the corresponding vehicle (PBS/PEG400/DMSO, 19:19:2). Food and water were provided ad libitum. Urine and Feces were collected separately at two intervals: 0–24 h and 24–48 h. All collected samples were subsequently stored in −80 °C.
Fecal samples (0.4 g) were thawed on ice from −80 °C. The feces were mixed and homogenized with a pestle in 10 mL centrifuge tube with LCMS grade MeOH (2 mL), then centrifuged for 5 min at 10,000g. The supernatant was transferred to a separate 2 mL centrifuge tube and dried. The resulting feces were subjected to SPE C-18 (Supelco Discovery DSC-18Lt SPE Tube) by initially using 5 mL 18 LCMS grade water and subsequently eluted with LCMS grade MeOH. The organic eluant was collected and dried. The resulting feces mixture was filtered by size exclusion (Amicon Ultra Centrifugal Filter, 3 kDa MWCO). Then the solution was transferred to a sample vial with 300 μL insert and analyzed by Shimadzu HRMS 9030 Q-TOF. Urine samples were thawed on ice from −80 °C, vortexed for 5 s and blended in aliquots of 20 μL MeCN. The samples were vortexed for 15 s and centrifuged for 10 min at 10,000g. The supernatant was transferred to a clean microcentrifuge tube and diluted 10× with 80:20 H2O/MeCN. The resulting solution was filtered by size exclusion (Amicon Ultra Centrifugal Filter, 3 kDa MWCO) at 11k × g.
3. In vivo determination of metabolites from Xenograft models
Table S1. In vivo metabolites of 10a and 10b and HPLC retention time (Rt).a
0 – 24 h (R t/min) 24 – 48 h (R t/min)
Phase II metabolite urine feces urine feces
glucoside <LOD <LOD <LOD <LOD […]

[1] = urine 0–24 h after IP 1:1 mixture of 10a and 10b, total dose 30 mg/kg, HRMS

phase II metabolite in feces (feces 0–24 h, Table S1) | phase II metabolite in feces (feces 24–48 h, Table S1) | phase II metabolite in urine [1] | phase II metabolite in urine (urine 24–48 h, Table S1) | SMILES
< LOD | < LOD | presence | < LOD | CCc1cc(N)ccc1OC1OC(C(=O)O)C(O)C(O)C1O (centres unmarked) [Compound 14a]
< LOD | < LOD | presence | < LOD | [2H]C([2H])([2H])C([2H])([2H])c1cc(N)ccc1OC1OC(C(=O)O)C(O)C(O)C1O (centres unmarked) [Compound 14b]
